# Assay results published in patent publication US6737383B1, “Herbicidal oxadiazolidines” (priority 1999, dated 2004).
# Key:
# wild oat = test: Test B pre/postemergence wild oat; format: in vivo, Avena fatua
# Outline: (§1)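 Test chemicals in a non-phytotoxic solvent mixture with surfactant were sprayed preemergence onto planted seeds and postemergence onto plants 2 to 18 cm tall (1- to 4-leaf stage). After twelve to sixteen days in a greenhouse, injury was visually rated against untreated controls from 0 (no effect) to 10 (complete control).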
# rape = test: Test B pre/postemergence rape; format: in vivo, Brassica napus
# Outline: as §1
# purple nutsedge = test: Test B pre/postemergence purple nutsedge; format: in vivo, Cyperus rotundus
# Outline: as §1
# velvetleaf = test: Test B pre/postemergence velvetleaf; format: in vivo, Abutilon theophrasti
# Outline: as §1
# crabgrass = test: Test B pre/postemergence crabgrass; format: in vivo, Digitaria sanguinalis
# Outline: as §1
# corn = test: Test B pre/postemergence corn; format: in vivo, Zea mays
# Outline: as §1
# soybean = test: Test B pre/postemergence soybean; format: in vivo, Glycine max
# Outline: as §1
# sugar beet = test: Test B pre/postemergence sugar beet; format: in vivo, Beta vulgaris
# Outline: as §1
# bamyardgrass = test: Test B flood test barnyardgrass; format: in vivo, Echinochloa crus-galli
# Outline: (§2)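 Each value is a visual injury score relative to controls, with 10 meaning complete control and 0 no effect. Evaluation took place twelve to sixteen days after the 2-leaf-stage plants were treated and kept in the greenhouse.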
# blackgrass = test: Test B pre/postemergence blackgrass; format: in vivo, Alopecurus myosuroides
# Outline: as §1
# wheat = test: Test B pre/postemergence wheat; format: in vivo, Triticum aestivum
# Outline: as §1
# bedstraw = test: Test B pre/postemergence bedstraw; format: in vivo, Galium aparine
# Outline: as §1
# pigweed = test: Test B pre/postemergence pigweed; format: in vivo, Amaranthus retroflexus
# Outline: as §1
# surinam grass = test: Test B pre/postemergence surinam grass; format: in vivo, Brachiaria decumbens
# Outline: as §1
# smallflower flatsedge = test: Test B flood test smallflower flatsedge; format: in vivo, Cyperus difformis
# Outline: as §2
# cocklebur = test: Test B pre/postemergence cocklebur; format: in vivo, Xanthium strumarium
# Outline: as §1
# [1] = Postemergence, Rate 31 g/ha, visual rating, scale 0 to 10 (0 no effect, 10 complete control)
# [2] = Preemergence, Rate 62 g/ha, scale of 0 to 10 where 0 is no effect and 10 is complete control
# [3] = Preemergence, Rate 250 g/ha, scale of 0 to 10 where 0 is no effect and 10 is complete control
# [4] = Rate 62 g/ha, Postemergence, scale 0 to 10 (0 no effect, 10 complete control)
# [5] = Rate 125 g/ha, Postemergence, scale of 0 to 10 where 0 is no effect and 10 is complete control
# [6] = Rate 250 g/ha, Postemergence, scale of 0 to 10 where 0 is no effect and 10 is complete control
# [7] = Preemergence, Rate 31 g/ha, visual rating, scale 0 to 10 (0 no effect, 10 complete control)
# [8] = Rate 31 g/ha, Pre-emergence section (flood test species), scale 0 to 10
# [9] = Rate 62 g/ha, headed Pre-emergence (flood test species), scale 0 to 10 (0 no effect, 10 complete control)
# [10] = Rate 125 g/ha, Pre-emergence, flood test species, scale 0 to 10 where 0 is no effect and 10 is complete control
# [11] = Rate 250 g/ha, Pre-emergence, flood-test species, scale 0 to 10, 0 is no effect, 10 is complete control
smiles,measurement,setting,value
Cc1cccc(C)c1-n1c(=O)on(C(=O)N(c2ccc(Cl)cc2Cl)C2CCC2)c1=O [Compound 318],Wild oats plant response rating,wild oat; [1],0
same,Wild oats plant response rating,wild oat; [2],0
same,Wild oats plant response rating (0 to 10 scale),"wild oat; Preemergence, Rate 125 g/ha",0
same,Wild oats plant response rating,wild oat; [3],0
same,Wild oats plant response rating,wild oat; [4],0
same,Wild oats plant response rating,wild oat; [5],0
same,"Plant response rating, Wild oats",wild oat; [6],0
same,Rape plant response rating,rape; [1],0
same,Rape plant response rating,rape; [2],0
same,Rape plant response rating (0 to 10 scale),"rape; Preemergence, Rate 125 g/ha",0
same,Rape plant response rating,rape; [3],0
same,Rape plant response rating,rape; [4],0
same,Rape plant response rating,rape; [5],0
same,"Plant response rating, Rape",rape; [6],0
same,Nutsedge plant response rating,purple nutsedge; [1],0
same,Nutsedge plant response rating,purple nutsedge; [2],0
same,Nutsedge plant response rating (0 to 10 scale),"purple nutsedge; Preemergence, Rate 125 g/ha",0
same,Nutsedge plant response rating,purple nutsedge; [4],0
same,Nutsedge plant response rating,purple nutsedge; [5],0
same,"Plant response rating, Nutsedge",purple nutsedge; [6],0
same,Velvetleaf plant response rating,velvetleaf; [1],0
same,Velvetleaf plant response rating,velvetleaf; [2],0
same,Velvetleaf plant response rating (0 to 10 scale),"velvetleaf; Preemergence, Rate 125 g/ha",0
same,Velvetleaf plant response rating,velvetleaf; [3],0
same,Velvetleaf plant response rating,velvetleaf; [4],0
same,Velvetleaf plant response rating,velvetleaf; [5],0
same,"Plant response rating, Velvetleaf",velvetleaf; [6],0
same,Crabgrass plant response rating,crabgrass; [1],0
same,Crabgrass plant response rating,crabgrass; [7],0
same,Crabgrass plant response rating,crabgrass; [2],0
same,Crabgrass plant response rating (0 to 10 scale),"crabgrass; Preemergence, Rate 125 g/ha",0
same,Crabgrass plant response rating,crabgrass; [3],0
same,Crabgrass plant response rating,crabgrass; [4],0
same,Crabgrass plant response rating,crabgrass; [5],0
same,"Plant response rating, Crabgrass",crabgrass; [6],0
same,Corn plant response rating,corn; [1],0
same,Corn plant response rating,corn; [7],0
same,Corn plant response rating,corn; [2],0
same,Corn plant response rating (0 to 10 scale),"corn; Preemergence, Rate 125 g/ha",0
same,Corn plant response rating,corn; [3],0
same,Corn plant response rating,corn; [4],0
same,Corn plant response rating,corn; [5],0
same,"Plant response rating, Corn",corn; [6],0
same,Soybean plant response rating,soybean; [1],0
same,Soybean plant response rating,soybean; [2],0
same,Soybean plant response rating (0 to 10 scale),"soybean; Preemergence, Rate 125 g/ha",0
same,Soybean plant response rating,soybean; [3],0
same,Soybean plant response rating,soybean; [4],0
same,Soybean plant response rating,soybean; [5],0
same,"Plant response rating, Soybean",soybean; [6],1
same,Sugarbeets plant response rating,sugar beet; [1],0
same,Sugarbeets plant response rating,sugar beet; [2],0
same,Sugarbeets plant response rating (0 to 10 scale),"sugar beet; Preemergence, Rate 125 g/ha",0
same,Sugarbeets plant response rating,sugar beet; [3],0
same,Sugarbeets plant response rating,sugar beet; [4],0
same,Sugarbeets plant response rating,sugar beet; [5],0
same,"Plant response rating, Sugarbeets",sugar beet; [6],0
same,Barnyardgrass plant response rating,bamyardgrass; [8],0
same,Barnyardgrass plant response rating,bamyardgrass; [9],0
same,Barnyardgrass plant response rating,bamyardgrass; [10],0
same,Barnyardgrass plant response rating,bamyardgrass; [11],0
same,Blackgrass plant response rating,blackgrass; [1],0
same,Blackgrass plant response rating,blackgrass; [7],0
same,Blackgrass plant response rating,blackgrass; [2],0
same,Blackgrass plant response rating (0 to 10 scale),"blackgrass; Preemergence, Rate 125 g/ha",0
same,Blackgrass plant response rating,blackgrass; [3],0
same,Blackgrass plant response rating,blackgrass; [4],0
same,Blackgrass plant response rating,blackgrass; [5],0
same,"Plant response rating, Blackgrass",blackgrass; [6],0
same,Wheat plant response rating,wheat; [1],0
same,Wheat plant response rating,wheat; [2],0
same,Wheat plant response rating (0 to 10 scale),"wheat; Preemergence, Rate 125 g/ha",0
same,Wheat plant response rating,wheat; [3],0
same,Wheat plant response rating,wheat; [4],0
same,Wheat plant response rating,wheat; [5],0
same,"Plant response rating, Wheat",wheat; [6],0
same,Bedstraw plant response rating,bedstraw; [1],0
same,Bedstraw plant response rating (0 to 10 scale),"bedstraw; Preemergence, Rate 125 g/ha",0
same,Bedstraw plant response rating,bedstraw; [3],0
same,Bedstraw plant response rating,bedstraw; [4],0
same,Bedstraw plant response rating,bedstraw; [5],0
same,"Plant response rating, Bedstraw",bedstraw; [6],0
same,Redroot pigweed plant response rating,pigweed; [1],0
same,Redroot pigweed plant response rating,pigweed; [2],0
same,Redroot pigweed plant response rating (0 to 10 scale),"pigweed; Preemergence, Rate 125 g/ha",0
same,Redroot pigweed plant response rating,pigweed; [3],0
same,Redroot pigweed plant response rating,pigweed; [4],0
same,Redroot pigweed plant response rating,pigweed; [5],0
same,"Plant response rating, Redroot pigweed",pigweed; [6],0
same,B. signalgrass plant response rating,surinam grass; [1],0
same,B. signalgrass plant response rating,surinam grass; [7],0
same,B. signalgrass plant response rating,surinam grass; [2],0
same,"B. signalgrass plant response rating (0 to 10 scale, 0 is no effect, 10 is complete control)","surinam grass; Preemergence, Rate 125 g/ha",0
same,B. signalgrass plant response rating,surinam grass; [3],0
same,B. signalgrass plant response rating,surinam grass; [4],0
same,B. signalgrass plant response rating,surinam grass; [5],0
same,"Plant response rating, B. signalgrass",surinam grass; [6],0
same,S. Flatsedge plant response rating,smallflower flatsedge; [8],0
same,S. Flatsedge plant response rating,smallflower flatsedge; [9],0
same,S. Flatsedge plant response rating,smallflower flatsedge; [10],0
same,S. Flatsedge plant response rating,smallflower flatsedge; [11],0
same,Cocklebur plant response rating,cocklebur; [1],0
same,Cocklebur plant response rating,cocklebur; [7],0
same,Cocklebur plant response rating,cocklebur; [2],0
same,Cocklebur plant response rating (0 to 10 scale),"cocklebur; Preemergence, Rate 125 g/ha",0
same,Cocklebur plant response rating,cocklebur; [3],0
same,Cocklebur plant response rating,cocklebur; [4],0
same,Cocklebur plant response rating,cocklebur; [5],0
same,"Plant response rating, Cocklebur",cocklebur; [6],5
